Measured values reported in US8362012B2, “Benzoxazine benzimidazole derivative, a pharmaceutical composition comprising the same, and a use thereof” (Daewoong Pharmaceutical Co., Ltd., priority 2008, dated 2013).

Columns and labels:
[1] = target: T1, human vanilloid-1 (hVR-1) in hVR-1-HEK293 cell line (Homo sapiens, UniProt Q8NER1); test: Inhibitory effect on calcium influx via a vanilloid receptor (capsaicin-stimulated, Fluo-3/AM); type: cell-based; conditions: hVR-1-HEK293 cells, 1 μM of capsaicin, compounds 0.015˜2000 nM; read-out: I.A. (inhibitory activity), IC50 on intracellular calcium influx
T1 construct: expressed in transfected cells; host or cells: HEK293 Tet-on strain, doxycycline-induced
Method: The cell line can modulate the expression of VR-1, depending on whether doxycycline, a derivative of tetracycline, is present or not. […] Specifically, hVR-1-HEK293 cells were cultured in a T75 flask to about 80% confluency, separated from the flask by treating with trypsin solution, and then collected by centrifugation. The cells were suspended in a medium containing 1 μg/mL of doxycycline, and the resulting suspension was diluted to a concentration of 2˜4×10^5 cells/mL […], of the cell suspension was placed in each well of a 96-well black plate. The cells were cultured in 5% CO2 incubator at 37° C. for 2 days, and used for the following procedure. […] The cells prepared in 1) above were cultured at 37° C. for 90 min in a solution containing Fluo-3/AM, a fluorescent dye, as a calcium indicator so that the fluorescent dye was permeated into the cells. […] In order to stimulate calcium influx through a vanilloid receptor, the cells were treated with 1 μM of capsaicin. […] The obtained data were input to the Hill equation represented by the following formula I and the values were analyzed: Intracellular calcium influx= [(fluorescent intensity of experimental group−fluorescent intensity of background)/(fluorescent intensity of positive control−fluorescent intensity of background)]*100 [Formula I] The inhibitory activities were evaluated from the obtained intracellular calcium influx values according to the following criteria.

ICR male mice = test: Phenyl-p-quinone (PBQ)-induced writhing experiment using mice; type: in vivo; conditions: orally administered, PBQ (0.02%) intraperitoneally after 1 hour; for I.A. (inhibitory activity), % inhibition rate of writhing: writhing counted for 10 min
Method: In order to evaluate the effect on pain of the compounds prepared in the Examples, behaviors such as twisting or writhing of body resulted from pain were verified by the phenyl-p-quinone (PBQ)-induced writhing experiment using mice. 5 week-old ICR male mice were used as experimental animals and PBQ (0.02%), as a chemical stimulator. The suspensions of 20 mg of the compounds of the present invention and an excipient such as Na—CMC (sodium carboxymethyl cellulose) in 10 mL of saline were used as test compounds. The test compounds were orally administered to the mice and after 1 hour, PBQ was intraperitoneally administrated in an amount of 10 mL per kg of body weight. Also, as a control group, equivalent amounts of BCTC were administered. The writhing number of each mouse was measured for 10 min starting from 5 min after the administration, and the analgesic effect was verified by counting the reduced number compared to the control group administered with only excipient and calculating the % inhibitory rate according to the following Formula 2. % inhibition rate=(writhing # of control group−writhing # of test group)/writhing # of control group×100 [Formula 2]

T1 sequence (Q8NER1 whole entry): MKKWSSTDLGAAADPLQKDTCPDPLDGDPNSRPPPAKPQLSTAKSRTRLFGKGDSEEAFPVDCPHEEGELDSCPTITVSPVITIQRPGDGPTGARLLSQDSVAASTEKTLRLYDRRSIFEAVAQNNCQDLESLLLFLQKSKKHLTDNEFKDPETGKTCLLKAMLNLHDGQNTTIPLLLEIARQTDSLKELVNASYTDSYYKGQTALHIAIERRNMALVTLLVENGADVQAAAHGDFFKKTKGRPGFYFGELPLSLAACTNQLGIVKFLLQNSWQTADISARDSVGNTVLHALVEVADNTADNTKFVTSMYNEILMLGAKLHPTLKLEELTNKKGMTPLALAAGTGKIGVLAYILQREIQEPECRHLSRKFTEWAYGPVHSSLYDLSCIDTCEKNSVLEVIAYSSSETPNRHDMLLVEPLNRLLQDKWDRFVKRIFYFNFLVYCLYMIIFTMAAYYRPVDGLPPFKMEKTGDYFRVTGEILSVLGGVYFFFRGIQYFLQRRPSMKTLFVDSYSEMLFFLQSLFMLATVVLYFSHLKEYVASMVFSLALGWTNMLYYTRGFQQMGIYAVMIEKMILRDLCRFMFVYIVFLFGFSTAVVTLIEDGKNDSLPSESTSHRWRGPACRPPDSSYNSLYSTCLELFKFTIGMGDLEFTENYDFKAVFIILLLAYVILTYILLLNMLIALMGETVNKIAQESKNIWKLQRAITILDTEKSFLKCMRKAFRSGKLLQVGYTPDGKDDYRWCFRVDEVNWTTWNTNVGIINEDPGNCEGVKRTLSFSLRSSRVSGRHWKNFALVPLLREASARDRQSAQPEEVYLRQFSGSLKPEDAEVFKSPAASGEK

| Molecule | IC50 [1] [nM] | I.A. (inhibitory activity), % inhibition rate of writhing (ICR male mice) | % inhibition rate of writhing (ICR male mice) [%] |
| --- | --- | --- | --- |
| FC(F)(F)c1ccc2nc(-c3cccc4c3OCCN4c3ncc(Cl)cc3Cl)[nH]c2c1 [Example 18, 4-(3,5-dichloro-pyridin-2-yl)-8-(6-trifluoromethyl-1H-benzimidazol-2-yl)-3,4-dihydro-2H-benzo[1,4]oxazine] | 20 to 100 | + (<20%) | – |
| FC(F)(F)c1ccc2nc(-c3cccc4c3OCCN4c3ccc(Br)cn3)[nH]c2c1 [Example 19, 4-(5-bromo-pyridin-2-yl)-8-(6-trifluoromethyl-1H-benzimidazol-2-yl)-3,4-dihydro-2H-benzo[1,4]oxazine] | 20 to 100 | ++ (20˜50%) | – |
| FC(F)(F)c1ccc2nc(-c3cccc4c3OCCN4c3ccc(Cl)cn3)[nH]c2c1 [Example 20, 4-(5-chloro-pyridin-2-yl)-8-(6-trifluoromethyl-1H-benzimidazol-2-yl)-3,4-dihydro-2H-benzo[1,4]oxazine] | 20 to 100 | ++ (20˜50%) | – |
| Cc1ccc(N2CCOc3c(-c4nc5ccc(C(F)(F)F)cc5[nH]4)cccc32)nc1 [Example 25, 4-(5-methyl-pyridin-2-yl)-8-(6-trifluoromethyl-1H-benzimidazol-2-yl)-3,4-dihydro-2H-benzo[1,4]oxazine] | 20 to 100 | + (<20%) | – |
| Cc1ccc(N2CCOc3c(-c4nc5cc(Cl)c(Cl)cc5[nH]4)cccc32)nc1 [Example 28, 8-(5,6-dichloro-1H-benzimidazol-2-yl)-4-(5-methyl-pyridin-2-yl)-3,4-dihydro-2H-benzo[1,4]oxazine] | 20 to 100 | + (<20%) | – |
| Cc1ccc(N2CCOc3c(-c4nc5c(Br)cc(C(F)(F)F)cc5[nH]4)cccc32)nc1 [Example 31, 8-(4-bromo-6-trifluoromethyl-1H-benzimidazol-2-yl)-4-(5-methyl-pyridin-2-yl)-3,4-dihydro-2H-benzo[1,4]oxazine] | 20 to 100 | ++ (20˜50%) | – |
| Cc1ccc(N2CCOc3c(-c4nc5c(F)cc(Br)cc5[nH]4)cccc32)nc1 [Example 33, 8-(6-bromo-4-fluoro-1H-benzimidazol-2-yl)-4-(5-methyl-pyridin-2-yl)-3,4-dihydro-2H-benzo[1,4]oxazine] | 20 to 100 | +++ (51-80%) | – |
| Cc1ccc(N2c3cccc(-c4nc5ccc(C(C)(C)C)cc5[nH]4)c3OC[C@@H]2CO)nc1 [Example 34, [(S)-8-(6-tert-butyl-1H-benzimidazol-2-yl)-4-(5-methyl-pyridin-2-yl)-3,4-dihydro-2H-benzo[1,4]oxazin-3-yl]-methanol] | < 20 | + (<20%) | – |
| Cc1ccc(N2c3cccc(-c4nc5ccc(C(F)(F)F)cc5[nH]4)c3OC[C@@H]2CO)nc1 [Example 35, [(S)-4-(5-methyl-pyridin-2-yl)-8-(6-trifluoromethyl-1H-benzimidazol-2-yl)-3,4-dihydro-2H-benzo[1,4]oxazin-3-yl]-methanol] | < 20 | +++ (51-80%) | – |
| C=Cc1ccc(N2c3cccc(-c4nc5ccc(OC)cc5[nH]4)c3OC[C@@H]2CO)nc1 [Example 72, (S)-(8-(6-methoxy-1H-benzo[d]imidazol-2-yl)-4-(5-vinyl-pyridin-2-yl)-3,4-dihydro-2H-benzo[b][1,4]oxazin-3-yl)methanol] | 501 to 1000 | – | – |
| C=Cc1ccc(N2c3cccc(-c4nc5ccc(C#N)cc5[nH]4)c3OC[C@@H]2CO)nc1 [Example 73, (S)-2-(3-(hydroxymethyl)-4-(5-vinyl-pyridin-2-yl)-3,4-dihydro-2H-benzo[b][1,4]oxazin-8-yl)-1H-benzo[d]imidazol-6-carbonitrile] | 101 to 500 | – | – |
| C=Cc1ccc(N2c3cccc(-c4nc5ccc(C)cc5[nH]4)c3OC[C@@H]2CO)nc1 [Example 74, (S)-(8-(6-methyl-1H-benzo[d]imidazol-2-yl)-4-(5-vinyl-pyridin-2-yl)-3,4-dihydro-2H-benzo[b][1,4]oxazin-3-yl)methanol] | 101 to 500 | – | – |
| C=Cc1ccc(N2c3cccc(-c4nc5ccccc5[nH]4)c3OC[C@@H]2CO)nc1 [Example 75, (S)-(8-(1H-benzo[d]imidazol-2-yl)-4-(5-vinyl-pyridin-2-yl)-3,4-dihydro-2H-benzo[b][1,4]oxazin-3-yl)methanol] | 101 to 500 | – | – |
| C=Cc1ccc(N2c3cccc(-c4nc5c(C)cccc5[nH]4)c3OC[C@@H]2CO)nc1 [Example 76, (S)-(8-(4-methyl-1H-benzo[d]imidazol-2-yl)-4-(5-vinyl-pyridin-2-yl)-3,4-dihydro-2H-benzo[b][1,4]oxazin-3-yl)methanol] | 20 to 100 | – | – |
| C=Cc1ccc(N2c3cccc(-c4nc5c(C)c(C)ccc5[nH]4)c3OC[C@@H]2CO)nc1 [Example 77, (S)-(8-(4,5-dimethyl-1H-benzo[d]imidazol-2-yl)-4-(5-vinyl-pyridin-2-yl)-3,4-dihydro-2H-benzo[b][1,4]oxazin-3-yl)methanol] | 20 to 100 | – | – |
| CCc1ccc(N2c3cccc(-c4nc5ccc(C(C)(C)C)cc5[nH]4)c3OC[C@@H]2CO)nc1 [Example 78, [(S)-8-(6-tert-butyl-1H-benzimidazol-2-yl)-4-(5-ethyl-pyridin-2-yl)-3,4-dihydro-2H-benzo[1,4]oxazin-3-yl]-methanol] | 20 to 100 | – | – |
| CCc1ccc(N2c3cccc(-c4nc5ccc(C(F)(F)F)cc5[nH]4)c3OC[C@@H]2CO)nc1 [Example 79, [(S)-4-(5-ethyl-pyridin-2-yl)-8-(6-trifluoromethyl-1H-benzimidazol-2-yl)-3,4-dihydro-2H-benzo[1,4]oxazin-3-yl]-methanol] | 20 to 100 | – | – |
| CCc1ccc(N2c3cccc(-c4nc5cc(F)c(F)cc5[nH]4)c3OC[C@@H]2CO)nc1 [Example 83, [(S)-8-(5,6-difluoro-1H-benzimidazol-2-yl)-4-(5-ethyl-pyridin-2-yl)-3,4-dihydro-2H-benzo[1,4]oxazin-3-yl]-methanol] | 20 to 100 | – | – |
| CCc1ccc(N2c3cccc(-c4nc5cc(F)c(Cl)cc5[nH]4)c3OC[C@@H]2CO)nc1 [Example 84, [(S)-8-(6-chloro-5-fluoro-1H-benzimidazol-2-yl)-4-(5-ethyl-pyridin-2-yl)-3,4-dihydro-2H-benzo[1,4]oxazin-3-yl]-methanol] | 20 to 100 | – | – |
| COC[C@H]1COc2c(-c3nc4c(Br)cc(OC(F)(F)F)cc4[nH]3)cccc2N1c1ccc(C)cn1 [Example 105, (S)-8-(4-bromo-6-trifluoromethoxy-1H-benzimidazol-2-yl)-3-methoxymethyl-4-(5-methyl-pyridin-2-yl)-3,4-dihydro-2H-benzo[1,4]oxazine] | < 20 | – | – |
| COC[C@H]1COc2c(-c3nc4ccc(OC)cc4[nH]3)cccc2N1c1ccc(C)cn1 [Example 106, (S)-8-(6-methoxy-1H-benzo[d]imidazol-2-yl)-3-(methoxymethyl)-4-(5-methyl-pyridin-2-yl)-3,4-dihydro-2H-benzo[b][1,4]oxazine] | 101 to 500 | – | – |
| COC[C@H]1COc2c(-c3nc4c(F)cc(F)cc4[nH]3)cccc2N1c1ccc(C)cn1 [Example 107, (S)-8-(4,6-difluoro-1H-benzo[d]imidazol-2-yl)-3-(methoxymethyl)-4-(5-methyl-pyridin-2-yl)-3,4-dihydro-2H-benzo[b][1,4]oxazine] | 501 to 1000 | – | – |
| COC[C@H]1COc2c(-c3nc4c(C)cccc4[nH]3)cccc2N1c1ccc(C)cn1 [Example 108, (S)-3-(methoxymethyl)-8-(4-methyl-1H-benzo[d]imidazol-2-yl)-4-(5-methyl-pyridin-2-yl)-3,4-dihydro-2H-benzo[b][1,4]oxazine] | 101 to 500 | – | – |
| COC[C@H]1COc2c(-c3nc4cc(C)ccc4[nH]3)cccc2N1c1ccc(C)cn1 [Example 109, (S)-3-(methoxymethyl)-8-(5-methyl-1H-benzo[d]imidazol-2-yl)-4-(5-methyl-pyridin-2-yl)-3,4-dihydro-2H-benzo[b][1,4]oxazine] | 101 to 500 | – | – |
| COC[C@H]1COc2c(-c3nc4ccccc4[nH]3)cccc2N1c1ccc(C)cn1 [Example 110, (S)-8-(1H-benzo[d]imidazol-2-yl)-3-(methoxymethyl)-4-(5-methyl-pyridin-2-yl)-3,4-dihydro-2H-benzo[b][1,4]oxazine] | 101 to 500 | – | – |
| N-(4-tert-butylphenyl)-4-(3-chloropyridin-2-yl)piperazin-1-carboxyamide [BCTC, reference compound] | – | ++ (20˜50%) | 33 |
